The structures appear in SMILES notation.

One experiment deals with T1, Human HSP90 alpha (Homo sapiens, UniProt P07900).
T1 construct: made in house; host or cells: E. coli BL21 codon plus (Stratagene)
As to the kind of experiment: Measurement of HSP90 enzyme inhibitory activity (ATPase, malachite green). As to conditions: purified human HSP90 alpha, 1 mM ATP added, 37° C., two hours; read-out: Enzyme inhibitory activity (IC50, μM) Human HSP 90α. The format is biochemical. How it is done:
HSP90 enzyme inhibitory activity of the compounds of the present invention represented by formula (1) was measured by the following method. Among the 6-phenyl-N-phenyl-(1,3,5)triazin/(1,3)pyrimidin-2,4-diamine derivatives which are known LPAAT-β inhibitors, the following two compounds were used as comparative compounds, and their HSP90 enzyme inhibitory activities were measured similarly by the following method.
Introduction of pETHuHSP90a into E. coli (BL21 codon plus; Stratagene) was followed by O/N incubation in the presence of 0.1 mM IPTG, and the collected E. coli cells were disrupted by ultrasonication in a Lysis buffer (50 mM Tris-HCl (pH8.0), 10 mM MgCl2, 0.1% Triton X-100, Protease inhibitor cocktail tablets (Roche Diagnostics)). The cell lysate solution was centrifuged (10,000 rpm×30 minutes), and the supernatant obtained after centrifugation was used as a crude extract. The crude extract was fractionated using HisPrep FF column and HiTrap Q column (Amersham) to prepare a purified enzyme solution.
An enzyme solution for assays was prepared by dilution of the purified enzyme solution using an assay buffer (50 mM Tris HCl pH7.6, 20 mM KCl, 5 mM MgCl2).
10 μL each of various concentrations of the test substances (10% DMSO solution) was added to each well, and for the positive control wells, 10 μL of 10% DMSO was added. 10 μL of 10% DMSO was also added to the negative control well.
10 μL of 1 mM ATP was added to all of the wells, and the reaction was carried out at 37° C. for two hours.

The test system of the next experiment is HCT116 cells. In words: Measurement of cell growth inhibition (Cell Counting Kit-8, four days). The format is cell-based. As to conditions: Homo sapiens, HCT-116, 96 h; HCT116 colon cancer cell line, four days culture; read-out: Cell growth inhibitory activity (IC50, μM) HCT116. How it is done: Cell growth inhibitory activities of the compounds of the present invention represented by formula (1) were measured by the following method.
Cells were maintained under conditions recommended by the provider of each cell line. Cells suspended in a medium were added to solutions containing various concentrations of the test substance, and the cells were cultured at 37° C. in a 5% CO2 incubator. Four days later, Cell Counting Kit-8 was added, and absorbance measurements were taken following the protocol included in the kit.
Background: Tetrazolium dyes change colour on reduction, which living cells bring about.

Consider `CSc1nc(N)nc(-c2ccccc2)n1` [4-methylsulfanyl-6-phenyl-[1,3,5]triazin-2-ylamine, reference compound], for which the IC50 (as a rule, the point on the concentration scale where inhibition reaches its midpoint) at Human HSP90 alpha came out at 33.8 µM.

For `Nc1nc(SCc2ccccc2)nc(-c2cc(OCc3ccccc3)c(Cl)cc2Cl)n1` [Example 4, 4-(5-benzyloxy-2,4-dichlorophenyl)-6-benzylsulfanyl[1,3,5]triazin-2-ylamine], the half-inhibitory concentration (IC50) came to 1.2 µM at Human HSP90 alpha and 8.5 µM with HCT116 cells.

As to `COc1cc(C(=O)N2CCN(C)CC2)ccc1Sc1nc(N)nc(-c2cc(OCC#N)c(Cl)cc2Cl)n1` [Example 15, (5-{4-amino-6-[2-methoxy-4-(4-methyl-piperazin-1-carbonyl)-phenylsulfanyl]-[1,3,5]triazin-2-yl}-2,4-dichlorophenoxy)-acetonitrile], the half-inhibitory concentration (IC50) at Human HSP90 alpha was determined as 2 µM; in the experiment with HCT116 cells, 0.35 µM.

With `CSc1nc(N)nc(-c2cc(-c3ncccn3)c(Cl)cc2Cl)n1` [Example 24, 4-(2,4-dichloro-5-pyrimidin-2-yl-phenyl)-6-methylsulfanyl-[1,3,5]triazin-2-ylamine], the IC50 at Human HSP90 alpha came out at 2.1 µM; in the experiment with HCT116 cells it was 1 µM.

With `CC(=O)NCCSc1nc(N)nc(-c2cc(-c3ncccn3)c(Cl)cc2Cl)n1` [Example 25, N-{2-[4-amino-6-(2,4-dichloro-5-pyrimidin-2-yl-phenyl)-[1,3,5]triazin-2-ylsulfanyl]-ethyl}-acetamide], the IC50 at Human HSP90 alpha was determined as 2.6 µM; with HCT116 cells, 0.66 µM.

For `NC(=O)c1cc(-c2nc(N)nc(SCc3ccccc3)n2)c(Cl)cc1Cl` [Example 26, 5-(4-amino-6-benzylsulfanyl-[1,3,5]triazin-2-yl)-2,4-dichlorobenzamide], the IC50 at Human HSP90 alpha was 2.8 µM; in the experiment with HCT116 cells, 1.3 µM.

With `Nc1nc(SCc2ccccc2)nc(-c2cc(C(=O)NC(CO)CO)c(Cl)cc2Cl)n1` [Example 28, 5-(4-amino-6-benzylsulfanyl-[1,3,5]triazin-2-yl)-2,4-dichloro-N-(2-hydroxy-1-hydroxymethylethyl)-benzamide], the IC50 at Human HSP90 alpha and in the experiment on HCT116 cells was 1.2 µM in each case.

Turning to `COC(=O)c1cc(-c2nc(N)nc(SCC(O)CO)n2)c(C)cc1C` (centres unmarked) [Example 37, 5-[4-amino-6-(2,3-dihydroxypropylsulfanyl)-[1,3,5]triazin-2-yl]-2,4-dimethylbenzoic acid methyl ester], the results for the IC50 on Human HSP90 alpha and in the experiment on HCT116 cells were 1.4 µM and 6.6 µM, respectively.

Turning to `COc1ccc(OC)c(Sc2cc(-c3ccc(Cl)cc3Cl)nc(N)n2)c1` [Example 39, 4-(2,4-dichlorophenyl)-6-(2,5-dimethoxyphenylsulfanyl)-pyrimidin-2-ylamine], the half-inhibitory concentration (IC50) turned out to be 1.8 µM at Human HSP90 alpha and 8.5 µM in the experiment on HCT116 cells.

As for `COc1ccc(OC)c(Sc2cc(-c3ccc(OCCCO)cc3C)nc(N)n2)c1` [Example 44, 3-{4-[2-amino-6-(2,5-dimethoxyphenylsulfanyl)-pyrimidin-4-yl]-3-methylphenoxy}-propan-1-ol], the IC50 on Human HSP90 alpha stood at 2.2 µM; with HCT116 cells it was 14.5 µM.

For `COc1ccc(OC)c(Sc2cc(-c3ccc(OCC#N)cc3C)nc(N)n2)c1` [Example 45, {4-[2-amino-6-(2,5-dimethoxyphenylsulfanyl)-pyrimidin-4-yl]-3-methylphenoxy}-acetonitrile], the figures for the IC50 at Human HSP90 alpha and in the experiment on HCT116 cells were 1.4 µM and 4.1 µM, respectively.

Consider `COc1ccc(OC)c(Sc2cc(-c3ccc(OCC(N)=O)cc3C)nc(N)n2)c1` [Example 46, 2-{4-[2-amino-6-(2,5-dimethoxyphenylsulfanyl)-pyrimidin-4-yl]-3-methylphenoxy}-acetamide], for which the half-maximal inhibitory concentration (IC50) is 1.5 µM on Human HSP90 alpha and 8.1 µM in the experiment with HCT116 cells.

As for `COc1ccc(OC)c(Sc2cc(-c3cc(OCc4ccccc4)c(Cl)cc3Cl)nc(N)n2)c1` [Example 48, 4-(5-benzyloxy-2,4-dichlorophenyl)-6-(2,5-dimethoxyphenylsulfanyl)-pyrimidin-2-ylamine], the values for the 50% inhibitory concentration (IC50) at Human HSP90 alpha and in the experiment with HCT116 cells were 2.5 µM and 42.9 µM, respectively.

With `COc1ccc(OC)c(Sc2cc(-c3cc(OCC#N)c(Cl)cc3Cl)nc(N)n2)c1` [Example 52, {5-[2-amino-6-(2,5-dimethoxyphenylsulfanyl)-pyrimidin-4-yl]-2,4-dichlorophenyoxy}-acetonitrile], the IC50 was 1.7 µM at Human HSP90 alpha and 1.4 µM in the experiment with HCT116 cells.

Consider `N#CCOc1cc(-c2cc(Sc3nc4ccccc4[nH]3)nc(N)n2)c(Cl)cc1Cl` [Example 54, {5-[2-amino-6-(1H-benzimidazol-2-ylsulfanyl)-pyrimidin-4-yl]-2,4-dichlorophenoxy}-acetonitrile], for which the 50% inhibitory concentration (IC50) on Human HSP90 alpha worked out at 1.5 µM; in the experiment on HCT116 cells, 1.1 µM.

On to `CCOC(=O)c1cnc(Sc2cc(-c3cc(OCC#N)c(Cl)cc3Cl)nc(N)n2)[nH]1` [Example 55, 2-[2-amino-6-(2,4-dichloro-5-cyanomethoxyphenyl)-pyrimidin-4-ylsulfanyl]-3H-imidazol-4-carboxylic acid ethyl ester], for which the IC50 was 1.7 µM on Human HSP90 alpha and 5.3 µM in the experiment with HCT116 cells.

`CC(=O)NCCSc1nc(N)nc(-c2cc(OCC#N)c(Cl)cc2Cl)n1` [Example 59, N-{2-[4-amino-6-(2,4-dichloro-5-cyanomethoxy-phenyl)-[1,3,5]triazin-2-ylsulfanyl]-ethyl}-acetamide]: the IC50 worked out at 1 µM at Human HSP90 alpha and 0.12 µM with HCT116 cells.

Turning to `N#CCOc1cc(-c2nc(N)nc(SCCC(=O)N3CCOCC3)n2)c(Cl)cc1Cl` [Example 63, {5-[4-amino-6-(3-morpholin-4-yl-3-oxo-propylsulfanyl)-[1,3,5]triazin-2-yl]-2,4-dichlorophenoxy}-acetonitrile], the IC50 came to 2 µM on Human HSP90 alpha and 0.74 µM in the experiment on HCT116 cells.

Turning to `COc1ccc(Oc2nc(N)nc(-c3c(Cl)cc4c5c(cccc35)COC4)n2)cc1OC` [Example 82, 4-(5-chloro-1H,3H-benzo[de]isochromen-6-yl)-6-(3,4-dimethoxyphenoxy)-[1,3,5]triazin-2-ylamine], the values for the IC50 on Human HSP90 alpha and in the experiment on HCT116 cells were 1.4 µM and 6.1 µM, respectively.

As to `Nc1nc(SC2CCCCC2)nc(-c2c(Cl)cc3c4c(cccc24)COC3)n1` [Example 92, 4-(5-chloro-1H,3H-benzo[de]isochromen-6-yl)-6-cyclohexylsulfanyl-[1,3,5]triazin-2-ylamine], the IC50 on Human HSP90 alpha turned out to be 1.1 µM; in the experiment with HCT116 cells it was 9.2 µM.

Take `COC(=O)CSc1nc(N)nc(-c2c(Cl)cc3c4c(cccc24)COC3)n1` [Example 111, [4-amino-6-(5-chloro-1H,3H-benzo[de]isochromen-6-yl)-[1,3,5]triazin-2-ylsulfanyl]-acetic acid methyl ester]: the half-maximal inhibitory concentration (IC50) amounted to 1.1 µM at Human HSP90 alpha and 0.2 µM with HCT116 cells.

Take `CC(=O)Nc1ccccc1CSc1nc(N)nc(-c2c(Cl)cc3c4c(cccc24)COC3)n1` [Example 143, N-{2-[4-Amino-6-(5-chloro-1H,3H-benzo[de]isochromen-6-yl)-[1,3,5]triazin-2-ylsulfanylmethyl]-phenyl}-acetamide]: the IC50 at Human HSP90 alpha worked out at 1 µM; in the experiment on HCT116 cells, 0.28 µM.

With `COc1ccc(OC)c(Sc2nc(N)nc(-c3c(Cl)cc4c5c(cccc35)COC4)n2)c1` [Example 145, 4-(5-Chloro-1H,3H-benzo[de]isochromen-6-yl)-6-(2,5-dimethoxyphenylsulfanyl)-[1,3,5]triazin-2-ylamine], the IC50 on Human HSP90 alpha was found to be 1.9 µM; in the experiment on HCT116 cells, 0.24 µM.

Consider `CC(=O)NCCCSc1nc(N)nc(-c2c(Cl)cc3c4c(cccc24)COC3)n1` [Example 149, N-{3-[4-amino-6-(5-chloro-1H,3H-benzo[de]isochromen-6-yl)-[1,3,5]triazin-2-ylsulfanyl]-propyl}-acetamide], for which the concentration for half-maximal inhibition (IC50) on Human HSP90 alpha stood at 2.8 µM; with HCT116 cells it was 0.11 µM.

Consider `NC(=O)CSc1cc(-c2c(Cl)cc3c4c(cccc24)COC3)nc(N)n1` [Example 314, 2-[2-amino-6-(5-chloro-1H,3H-benzo[de]isochromen-6-yl)-pyrimidin-4-ylsulfanyl]-acetamide], for which the values for the concentration for half-maximal inhibition (IC50) on Human HSP90 alpha and in the experiment with HCT116 cells were 1.3 µM and 1.1 µM, respectively.

With `N#CCNC(=O)CSc1cc(-c2c(Cl)cc3c4c(cccc24)COC3)nc(N)n1` [Example 315, 2-[2-amino-6-(5-chloro-1H,3H-benzo[de]isochromen-6-yl)-pyrimidin-4-ylsulfanyl]-N-cyanomethyl-acetamide], the IC50 came to 1.9 µM on Human HSP90 alpha and 2.1 µM with HCT116 cells.

On to `NC(=O)CCSc1cc(-c2c(Cl)cc3c4c(cccc24)COC3)nc(N)n1` [Example 316, 3-[2-amino-6-(5-chloro-1H,3H-benzo[de]isochromen-6-yl)-pyrimidin-4-ylsulfanyl]-propionamide], for which the IC50 at Human HSP90 alpha turned out to be 2.1 µM; with HCT116 cells, 0.45 µM.

The values are drawn from patent publication US8193351B2, “HSP90 inhibitor” (Chugai Seiyaku Kabushiki Kaisha, priority 2006, dated 2012).
